Assay results as given in PMC12808100, “The non-catalytic DNA polymerase ε subunit is an NPF motif recognition protein” (Nature Communications, 2025).

How the values were obtained:
[1] = molecular target: His6-avi-MBP-tagged POLE2; experiment: Single-point nHU-MS with recombinant His6-avi-MBP-POLE2 bait, Jurkat extract; format: binding, human; conditions: significant apparent affinity of endogenous prey protein for POLE2 bait; single-point nHU-MS; Figure S11
From the text: So far, our study only focused on a few hand-picked NPF motifs and studied them as short synthetic peptides. However, many other proteins may be present in the proteome that could bind to POLE2 and their putative NPF motifs are embedded in their natural structures that can greatly affect their binding properties. To investigate interactions between POLE2 and intact, full length proteins proteome-wide, we used nHU-MS experiments with recombinant His6-avi-MBP-tagged POLE2 as bait and purified His6-avi-MBP as a control. Even though we are aware that this recombinant POLE2 may bind to NPF motifs with a somewhat altered affinity, we assumed that this would affect all NPF motif-mediated interactions equally, allowing an unbiased affinity ranking of all identified partners. Single point nHU measurements were performed at 26 μM POLE2 concentration and the recovered supernatant was measured by label free proteomic MS measurements (Fig. 3A, Supplementary Figs. 8A, 9, Supplementary Data 1).
Single-point nHU experiments with protein baits were carried out nearly identically with two key modifications. First, the resin saturation step was carried out by mixing 50 μl streptavidin resin with 0.5−1 ml 50 μM biotinylated protein solution and the mixture was incubated for 1.5 h at 4 °C with constant agitation. Second, instead of using estimated bait concentrations, we measured it experimentally. An extra aliquot of resin stock was prepared alongside the nHU samples that were identically processed that were used to eluate the immobilized proteins under harsh conditions, in order to experimentally quantify the Cbait by using densitometry of Coomassie stained SDS-PAGE that included a protein calibration series. For this, 50 μl bait-saturated resin aliquots were mixed with 200 μl 4x Laemmli Sample Buffer (120 mM Tris-HCl pH 7, 8% SDS, 100 mM DTT, 32% glycerol, 0.004% bromphenol blue, 1% β-mercaptoethanol), instead of cell extract. After 15 min incubation at 95 °C, these samples were analyzed by SDS-PAGE using protein calibration standard, made from recombinant MBP. Densitometry was carried out after Coomassie staining on raw Tif images by using Fiji ImageJ 1.53c and experimental bait concentration were determined by adjusting for molecular weight differences between MBP and MBP-POLE2 constructs.
Samples were digested overnight at 37 °C.

POLE = experiment: nHU-MS peptide bait, prey POLE; conditions: FigureS2 Volcano
PPP2R2A = molecular target: T1, PPP2R2A (Homo sapiens, UniProt P63151); experiment: nHU-MS peptide bait, prey PPP2R2A; conditions: FigureS2 Volcano
T1 sequence (P63151 1-447): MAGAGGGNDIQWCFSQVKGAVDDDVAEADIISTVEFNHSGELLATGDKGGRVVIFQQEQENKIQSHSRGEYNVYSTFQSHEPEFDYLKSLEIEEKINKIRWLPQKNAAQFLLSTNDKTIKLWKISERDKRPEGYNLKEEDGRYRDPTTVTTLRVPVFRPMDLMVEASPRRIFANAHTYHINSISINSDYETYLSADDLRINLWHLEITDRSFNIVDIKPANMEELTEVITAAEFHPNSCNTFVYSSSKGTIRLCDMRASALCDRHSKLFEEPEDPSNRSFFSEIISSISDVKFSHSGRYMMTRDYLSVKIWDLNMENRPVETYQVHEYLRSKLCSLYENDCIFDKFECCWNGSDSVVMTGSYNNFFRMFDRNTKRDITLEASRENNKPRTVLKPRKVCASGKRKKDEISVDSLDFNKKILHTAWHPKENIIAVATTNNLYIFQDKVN

In the case of TSETSK [SYNJ1], the pKapp_sign [1] is reported as 4.4418, the log2FC (POLE) is reported as -0.4452 and the “-log10P” value (PPP2R2A) is reported as 6.763. It also gave a log2FC (PPP2R2A) of -0.4164.
